Experimental data from ChEMBL document CHEMBL5726510, “MK2 inhibitors and uses thereof” (2017).

Molecular target: MAP kinase-activated protein kinase 2 (Homo sapiens, UniProt P49137)
Assay: Mass Spectrometry Assay: Compounds I-1 through I-50 of the invention were assayed in a mass spectrometric assay to measure their ability to covalently modify MK2 protein. The procedure for this assay follows. Intact MK2 protein (Invitrogen, Cat. No. PR5320A) was incubated for 60 minutes at room temperature with a 10-fold excess of test compound to protein. Aliquots of the resulting mixture (6 μL …

MAP kinase-activated protein kinase 2, sequence (P49137 whole entry): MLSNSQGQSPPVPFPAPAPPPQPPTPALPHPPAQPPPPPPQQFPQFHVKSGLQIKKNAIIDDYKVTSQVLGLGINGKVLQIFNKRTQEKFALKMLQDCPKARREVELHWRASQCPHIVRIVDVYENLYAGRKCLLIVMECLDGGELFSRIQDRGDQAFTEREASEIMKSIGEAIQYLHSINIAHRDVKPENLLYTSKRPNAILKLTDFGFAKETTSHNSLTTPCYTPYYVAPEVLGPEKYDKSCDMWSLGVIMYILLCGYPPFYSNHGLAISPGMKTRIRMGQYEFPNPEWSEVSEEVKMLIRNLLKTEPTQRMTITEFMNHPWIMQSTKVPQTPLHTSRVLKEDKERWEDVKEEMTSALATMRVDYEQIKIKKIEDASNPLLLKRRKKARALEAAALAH

Structure (SMILES) | IC50 [nM]
CN(C)C[C@@H]1CNc2c(sc3ccc4nc(Nc5cc(F)ncn5)ccc4c23)C(=O)N1 | > 1000
C[C@@H]1CNc2c(sc3ccc4nc(Oc5cc(CNC(C)(C)C)nc(Cl)n5)ccc4c23)C(=O)N1 | < 100
C[C@@H]1CNc2c(sc3ccc4nc(Nc5nc(Cl)ncc5C(=O)NC5CC5)ccc4c23)C(=O)N1 | < 100
C[C@@H]1CNc2c(sc3ccc4nc(Nc5nc(Cl)ncc5C(=O)NC5COC5)ccc4c23)C(=O)N1 | < 100
C[C@@H]1CNc2c(sc3ccc4nc(Nc5nc(Cl)ncc5C(=O)NC5CCN(C)CC5)ccc4c23)C(=O)N1 | < 100
C[C@@H]1CNc2c(sc3ccc4nc(Nc5nccc(Cl)n5)ccc4c23)C(=O)N1 | > 1000
